Assay [1] has as its target T1, h-GABA-A α5β3γ2 (Homo sapiens, UniProt P18507+P31644). In words: [3H]flumazenil competition binding assay, membranes of HEK293 cells expressing GABAA receptors. The method in brief: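 Membranes from HEK293 cells transiently expressing human α5β3γ2 GABAA receptors, in Krebs-tris buffer pH 7.5, competed against [3H]flumazenil for 1 hour at 4° C to equilibrium. Bound radioactivity collected on GF/C filters and counted by liquid scintillation; Ki values are means of two determinations.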

The target of assay [2] is T1, h-GABA-A α5β3γ2. The experiment in a line: Two-electrode voltage clamp electrophysiology in Xenopus laevis oocytes expressing GABAA receptors, modulation of GABA EC20 current. It is filed as cell-based. Also noted: host or cells: Xenopus laevis oocytes micro-injected with RNA transcripts of the subunits. In a few lines: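 Human α5β3γ2 GABAA receptors were expressed in Xenopus oocytes by RNA injection, with γ2 RNA 5–10-fold higher, and recorded 3–5 days later by two-electrode voltage clamp at −80 mV at room temperature. The test compound, at about 30× its Ki, was co-applied during a second GABA EC20 pulse. Efficacy is the extremum of the point-by-point ratio to the first response, expressed as 100*(Fold increase−1).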

Where [3] appears, read: displacement of [3H]-Flumazenil 0.5 nM, HEK293 cells expressing human receptors, mean of two determinations, Table 1.
The mark [4] stands for this setting: % modulation of GABA EC20 = 100*(Fold increase-1), Table 1.
The mark [5] stands for this setting: test compound at approx. 30 fold its Ki, GABA at EC20, Table 1.

These results are taken from patent publication US11840528B2 (Hoffmann-La Roche Inc., priority 2018, dated 2023).

The Ki is a dissociation constant, usually derived from enzyme kinetics or from competition with a known ligand. Low readings indicate higher affinity, high ones lower affinity.

In turn, `COc1ccc(-c2cnn(Cc3c(-c4ccc(C)nc4)noc3C)c(=O)c2)cc1OC` [Example 113, 5-(3,4-dimethoxyphenyl)-2-((5-methyl-3-(6-methyl-3-pyridyl)isoxazol-4-yl)methyl)pyridazin-3-one] registered a Ki in assay [1] (setting [3]) of 7.8 nM. Also, the “Efficacy (GABA) %” value in assay [2] (setting [4]) amounted to 91%. Besides, the “Fold increase h-GABA-A α5β3γ2 oocyte” value in assay [2] (setting [5]) is on record as 1.91.

In assay [1] (setting [3]), `COc1ccccc1C1CCN(c2cnn(Cc3c(-c4ccc(C)nc4)noc3C)c(=O)c2)CC1` [Example 61, 5-[4-(2-methoxyphenyl)-1-piperidyl]-2-[[5-methyl-3-(6-methyl-3-pyridyl)isoxazol-4-yl]methyl]pyridazin-3-one] returned a Ki of 15.4 nM. Also, the “Efficacy (GABA) %” value in assay [2] (setting [4]) is on record as 76%. Also, in assay [2] (setting [5]), the “Fold increase h-GABA-A α5β3γ2 oocyte” value turned out to be 1.76.

Turning to `Cc1ccc(-c2noc(C)c2Cn2ncc(N3CC4(CC(C)CCO4)C3)cc2=O)nn1` (single isomer, unassigned) [Example 317], the Ki in assay [1] (setting [3]) turned out to be 4.9 nM. Moreover, in assay [2] (setting [4]), the “Efficacy (GABA) %” value was 68%. Moreover, the “Fold increase h-GABA-A α5β3γ2 oocyte” value in assay [2] (setting [5]) was 1.68.

In assay [1] (setting [3]), `Cc1onc(-c2ncc(Cl)cc2F)c1Cn1ncc(N2C[C@@H](C)O[C@@H](C)C2)cc1=O` [Example 52, 2-[[3-(5-chloro-3-fluoro-2-pyridyl)-5-methyl-isoxazol-4-yl]methyl]-5-(cis-2,6-dimethylmorpholin-4-yl)pyridazin-3-one] registered a Ki of 0.7 nM. In addition, in assay [2] (setting [4]), the “Efficacy (GABA) %” value amounted to 135%. Besides, the “Fold increase h-GABA-A α5β3γ2 oocyte” value in assay [2] (setting [5]) turned out to be 2.35.

`Cc1ccc(-c2noc(C)c2Cn2ncc(N3CC(O)(C(F)(F)F)C3)cc2=O)cn1` [Example 117, 5-(3-hydroxy-3-(trifluoromethyl)azetidin-1-yl)-2-((5-methyl-3-(6-methylpyridin-3-yl)isoxazol-4-yl)methyl)pyridazin-3(2H)-one] yielded a Ki in assay [1] (setting [3]) of 4.1 nM. Further, the “Efficacy (GABA) %” value in assay [2] (setting [4]) is reported as 226%. For the same compound, in assay [2] (setting [5]), the “Fold increase h-GABA-A α5β3γ2 oocyte” value was 3.26.

As for `Cc1onc(-c2ccc(C3CC3)nc2)c1Cn1ncc(N2CC3(C2)CC(F)(F)CO3)cc1=O` [Example 260, 2-((3-(6-cyclopropylpyridin-3-yl)-5-methylisoxazol-4-yl)methyl)-5-(7,7-difluoro-5-oxa-2-azaspiro[3.4]octan-2-yl)pyridazin-3(2H)-one], the affinity in assay [1] (setting [3]) corresponds to a Ki of 3.7 nM. In addition, the “Efficacy (GABA) %” value in assay [2] (setting [4]) came to 123%. Further, the “Fold increase h-GABA-A α5β3γ2 oocyte” value in assay [2] (setting [5]) turned out to be 2.23.

In turn, `Cc1ccc(-c2noc(C)c2Cn2ncc(N3CC4CC(C3)O4)cc2=O)cn1` [Example 100, 2-[[5-methyl-3-(6-methyl-3-pyridyl)isoxazol-4-yl]methyl]-5-(6-oxa-3-azabicyclo[3.1.1]heptan-3-yl)pyridazin-3-one] registered a Ki in assay [1] (setting [3]) of 12.2 nM. Also, the “Efficacy (GABA) %” value in assay [2] (setting [4]) worked out at 105%. Also, the “Fold increase h-GABA-A α5β3γ2 oocyte” value in assay [2] (setting [5]) stood at 2.05.

Regarding `Cc1onc(-c2ccc(Cl)nc2)c1Cn1ncc(N2CC(OCC(F)(F)F)C2)cc1=O` [Example 254, 2-((3-(6-chloropyridin-3-yl)-5-methylisoxazol-4-yl)methyl)-5-(3-(2,2,2-trifluoroethoxy)azetidin-1-yl)pyridazin-3(2H)-one], in assay [1] (setting [3]), the Ki is 27.6 nM. The “Efficacy (GABA) %” value in assay [2] (setting [4]) was 147%. In addition, the “Fold increase h-GABA-A α5β3γ2 oocyte” value in assay [2] (setting [5]) was 2.47.

In assay [1] (setting [3]), `Cc1ccc(-c2noc(C)c2Cn2ncc(N3CC(F)C3)cc2=O)cn1` [Example 181, 5-(3-fluoroazetidin-1-yl)-2-[[5-methyl-3-(6-methyl-3-pyridyl)isoxazol-4-yl]methyl]pyridazin-3-one] showed a Ki of 15.7 nM. The “Efficacy (GABA) %” value in assay [2] (setting [4]) worked out at 134%. Moreover, the “Fold increase h-GABA-A α5β3γ2 oocyte” value in assay [2] (setting [5]) is on record as 2.34.

`CCc1cc(-c2cnn(Cc3c(-c4ccc(C)nc4)noc3C)c(=O)c2)ccn1` [Example 196, 5-(2-ethyl-4-pyridyl)-2-((5-methyl-3-(6-methyl-3-pyridyl)isoxazol-4-yl)methyl)pyridazin-3-one]: the affinity in assay [1] (setting [3]), expressed as Ki, was 3.7 nM. The “Efficacy (GABA) %” value in assay [2] (setting [4]) was 98%. Besides, the “Fold increase h-GABA-A α5β3γ2 oocyte” value in assay [2] (setting [5]) was 1.98.

`CCn1cc(-c2cnn(Cc3c(-c4ccc(Cl)nc4)noc3C)c(=O)c2)cn1` [Example 221, 2-((3-(6-chloropyridin-3-yl)-5-methylisoxazol-4-yl)methyl)-5-(1-ethyl-1H-pyrazol-4-yl)pyridazin-3(2H)-one]: the Ki in assay [1] (setting [3]) was determined as 31.2 nM. In assay [2] (setting [4]), the “Efficacy (GABA) %” value was 99%. For the same compound, the “Fold increase h-GABA-A α5β3γ2 oocyte” value in assay [2] (setting [5]) turned out to be 1.99.

`Cc1ccc(-c2noc(C)c2Cn2ncc(N3CC[C@H](C(=O)NC4CC4)C3)cc2=O)cn1` [Example 57, (3S)—N-cyclopropyl-1-[1-[[5-methyl-3-(6-methyl-3-pyridyl)isoxazol-4-yl]methyl]-6-oxo-pyridazin-4-yl]pyrrolidine-3-carboxamide] returned a Ki in assay [1] (setting [3]) of 56.2 nM. In assay [2] (setting [4]), the “Efficacy (GABA) %” value is on record as 198%. The “Fold increase h-GABA-A α5β3γ2 oocyte” value in assay [2] (setting [5]) was found to be 2.98.

With `Cc1ccc(-c2noc(C)c2Cn2ncc(N3CC4(CCC(C(F)(F)F)CO4)C3)cc2=O)nn1` (single isomer, unassigned) [Example 321], the affinity in assay [1] (setting [3]), expressed as Ki, was 6.3 nM. In addition, in assay [2] (setting [4]), the “Efficacy (GABA) %” value was 129%. The “Fold increase h-GABA-A α5β3γ2 oocyte” value in assay [2] (setting [5]) was found to be 2.29.

In assay [1] (setting [3]), `Cc1onc(-c2ccc(Cl)nc2)c1Cn1ncc(N2CC(OC(C)C(F)(F)F)C2)cc1=O` (single isomer, unassigned) [Example 265] gave a Ki of 25.8 nM. Moreover, the “Efficacy (GABA) %” value in assay [2] (setting [4]) was determined as 155%. In addition, the “Fold increase h-GABA-A α5β3γ2 oocyte” value in assay [2] (setting [5]) was determined as 2.55.

On to `Cc1ccc(-c2noc(C)c2Cn2ncc(N3CC4(COC4)C3)cc2=O)cn1` [Example 38, 2-[[5-methyl-3-(6-methyl-3-pyridyl)isoxazol-4-yl]methyl]-5-(2-oxa-6-azaspiro[3.3]heptan-6-yl)pyridazin-3-one], for which the affinity in assay [1] (setting [3]), expressed as Ki, was 38.4 nM. For the same compound, the “Efficacy (GABA) %” value in assay [2] (setting [4]) came out at 181%. Besides, in assay [2] (setting [5]), the “Fold increase h-GABA-A α5β3γ2 oocyte” value worked out at 2.81.

In assay [1] (reference compounds, Table 2), `Cc1onc(-c2ccccc2)c1COc1ccc(N2CCOCC2)nn1` [RO-036, reference compound] registered a Ki of 9.45 nM. In addition, the “Efficacy (GABA) %” value in assay [2] (reference compounds, % modulation of GABA EC20, Table 2) is recorded as −28%. Further, the “Fold increase h-GABA-A α5β3γ2 oocyte” value in assay [2] (reference compounds, Table 2) is recorded as 0.72.

In assay [1] (setting [3]), `Cc1ncc(-c2noc(C)c2Cn2ncc(N3C[C@@H](C)O[C@@H](C)C3)cc2=O)cc1F` [Example 205, 5-((2R,6S)-2,6-dimethylmorpholino)-2-((3-(5-fluoro-6-methylpyridin-3-yl)-5-methylisoxazol-4-yl)methyl)pyridazin-3(2H)-one] returned a Ki of 2 nM. The “Efficacy (GABA) %” value in assay [2] (setting [4]) was determined as 253%. In assay [2] (setting [5]), the “Fold increase h-GABA-A α5β3γ2 oocyte” value was found to be 3.53.

`Cc1ccc(-c2noc(C)c2Cn2ncc(N3CCC(n4ccnc4C)CC3)cc2=O)cn1` [Example 110, 5-[4-(2-methylimidazol-1-yl)-1-piperidyl]-2-[[5-methyl-3-(6-methyl-3-pyridyl)isoxazol-4-yl]methyl]pyridazin-3-one]: in assay [1] (setting [3]), the Ki was found to be 1.2 nM. For the same compound, in assay [2] (setting [4]), the “Efficacy (GABA) %” value is recorded as 142%. In addition, in assay [2] (setting [5]), the “Fold increase h-GABA-A α5β3γ2 oocyte” value is reported as 2.42.

Consider `CCOC1CN(c2cnn(Cc3c(-c4ccc(Cl)cc4)noc3C)c(=O)c2)C1` [Example 161, 2-[[3-(4-chlorophenyl)-5-methyl-isoxazol-4-yl]methyl]-5-(3-ethoxyazetidin-1-yl)pyridazin-3-one], for which the inhibition constant Ki in assay [1] (setting [3]) was 7.8 nM. Besides, the “Efficacy (GABA) %” value in assay [2] (setting [4]) turned out to be 56%. The “Fold increase h-GABA-A α5β3γ2 oocyte” value in assay [2] (setting [5]) is 1.56.

`Cc1ccc(-c2noc(C)c2Cn2ncc(N3CC(Oc4cccc(F)c4)C3)cc2=O)cn1` [Example 127, 5-[3-(3-fluorophenoxy)azetidin-1-yl]-2-[[5-methyl-3-(6-methyl-3-pyridyl)isoxazol-4-yl]methyl]pyridazin-3-one] yielded a Ki in assay [1] (setting [3]) of 7.3 nM. The “Efficacy (GABA) %” value in assay [2] (setting [4]) is 153%. For the same compound, in assay [2] (setting [5]), the “Fold increase h-GABA-A α5β3γ2 oocyte” value was determined as 2.53.

Take `CO[C@H]1CN(c2cnn(Cc3c(-c4ccc(Cl)nc4)noc3C)c(=O)c2)[C@H]1C` [Example 286, 2-((3-(6-chloropyridin-3-yl)-5-methylisoxazol-4-yl)methyl)-5-((2S,3S)-3-methoxy-2-methylazetidin-1-yl)pyridazin-3(2H)-one]: the affinity in assay [1] (setting [3]) corresponds to a Ki of 3.3 nM. Also, the “Efficacy (GABA) %” value in assay [2] (setting [4]) came to 112%. For the same compound, in assay [2] (setting [5]), the “Fold increase h-GABA-A α5β3γ2 oocyte” value came out at 2.12.

On to `Cc1onc(-c2ccc(Cl)nc2)c1Cn1ncc(N2CC3(CC(F)CCO3)C2)cc1=O` (single isomer, unassigned) [Example 296, (R or S)-2-((3-(6-chloropyridin-3-yl)-5-methylisoxazol-4-yl)methyl)-5-(8-fluoro-5-oxa-2-azaspiro[3.5]nonan-2-yl)pyridazin-3(2H)-one], for which, in assay [1] (setting [3]), the affinity corresponds to a Ki of 27.7 nM. Moreover, the “Efficacy (GABA) %” value in assay [2] (setting [4]) is recorded as 84%. Also, the “Fold increase h-GABA-A α5β3γ2 oocyte” value in assay [2] (setting [5]) was determined as 1.84.
